Measured values taken from patent US10898486B2, “Crystal form of orexin receptor antagonist compound, and preparation method and application thereof” (Shanghai Haiyan Pharmaceutical Technology Co., Ltd., priority 2015, dated 2021).
In brackets after ≈: the same amount, converted by molar mass.

What was measured:
[1] = Solubility of crystal form I in different solvents (visual, room temperature); assay type: physicochemical
Experimental: Solubility Study of crystal form I of compound 5-3:1-1.5 mg of crystal form I of compound 5-3 was added to a flask at room temperature, a single organic solvent or a mixed solvent was added in small quantities and many times until the visual solution was clear or no solid particles were present, determined the solubility of crystal form I in different solvents, the results were shown in Table 2.

[2] = Solubility of crystal form II in different aqueous media (37° C., 24 hours, HPLC); assay type: physicochemical; details: for Appearance: 10 mg in 1 mL
[3] = molecular target: T1, hOX1R (Homo sapiens, UniProt O43613); assay: In vitro test of OX1R: calcium signal change in HEK293-OX1 cells detected with FLIPR; assay type: cell-based
T1 construct: expressed in transfected cells
T1 sequence (O43613 1-425): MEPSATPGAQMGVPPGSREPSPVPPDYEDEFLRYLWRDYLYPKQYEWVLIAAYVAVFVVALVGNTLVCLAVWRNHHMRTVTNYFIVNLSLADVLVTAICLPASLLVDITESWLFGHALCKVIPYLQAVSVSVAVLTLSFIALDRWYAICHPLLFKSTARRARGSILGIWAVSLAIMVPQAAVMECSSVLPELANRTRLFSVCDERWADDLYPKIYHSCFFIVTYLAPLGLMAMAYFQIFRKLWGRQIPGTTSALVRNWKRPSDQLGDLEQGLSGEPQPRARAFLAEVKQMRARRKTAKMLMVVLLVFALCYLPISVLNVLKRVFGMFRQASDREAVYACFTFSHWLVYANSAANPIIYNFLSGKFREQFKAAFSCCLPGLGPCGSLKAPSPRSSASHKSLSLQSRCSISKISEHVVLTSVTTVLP

[4] = molecular target: T2, hOX2R (Homo sapiens, UniProt O43614); assay: In vitro test of OX2R: calcium signal change in HEK293-OX2 cells detected with FLIPR; assay type: cell-based
T2 construct: expressed in transfected cells
T2 sequence (O43614 1-444): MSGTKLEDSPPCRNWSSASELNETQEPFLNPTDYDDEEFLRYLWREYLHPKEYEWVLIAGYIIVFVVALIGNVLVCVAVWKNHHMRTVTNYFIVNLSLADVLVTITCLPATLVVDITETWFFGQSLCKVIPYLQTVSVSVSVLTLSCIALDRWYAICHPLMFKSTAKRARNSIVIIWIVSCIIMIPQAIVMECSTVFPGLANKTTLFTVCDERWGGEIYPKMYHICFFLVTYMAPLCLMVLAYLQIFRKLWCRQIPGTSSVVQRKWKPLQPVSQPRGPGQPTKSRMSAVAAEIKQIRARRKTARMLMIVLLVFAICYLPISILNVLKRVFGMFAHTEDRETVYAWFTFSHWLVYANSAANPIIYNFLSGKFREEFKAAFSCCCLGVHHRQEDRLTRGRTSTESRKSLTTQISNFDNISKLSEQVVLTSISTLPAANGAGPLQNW

[5] = Simulated fasting intestinal fluid
[6] = Simulated postprandial intestinal fluid

Cc1ccc(-c2ncccn2)c(C(=O)N2C3CCC2[C@@H](COc2ccc(F)cn2)CC3)c1 (stereo partly drawn) [crystal form I]
solubility ([1]; organic solvent or mixture, thermodynamic from solid, 1,4-dioxane): > 57 mg/mL
solubility ([1]; organic solvent or mixture, thermodynamic from solid, ACN): 20 to 50 mg/mL (≈ 46.2 to 116 mM)
solubility ([1]; organic solvent or mixture, thermodynamic from solid, Acetone): > 52 mg/mL
solubility ([1]; organic solvent or mixture, thermodynamic from solid, EtOAc): 19 to 48 mg/mL (≈ 43.9 to 111 mM)
solubility ([1]; organic solvent or mixture, thermodynamic from solid, EtOH): 22 to 55 mg/mL (≈ 50.9 to 127 mM)
solubility ([1]; organic solvent or mixture, thermodynamic from solid, IPA): 10 to 20 mg/mL (≈ 23.1 to 46.2 mM)
solubility ([1]; organic solvent or mixture, thermodynamic from solid, MEK): > 54 mg/mL
solubility ([1]; organic solvent or mixture, thermodynamic from solid, MIBK): 24 to 60 mg/mL (≈ 55.5 to 139 mM)
solubility ([1]; organic solvent or mixture, thermodynamic from solid, MTBE): < 1 mg/mL
solubility ([1]; organic solvent or mixture, thermodynamic from solid, MeOH): > 53 mg/mL
solubility ([1]; organic solvent or mixture, thermodynamic from solid, MeOH—H2O (3:1)): 18 to 46 mg/mL (≈ 41.6 to 106 mM)
solubility ([1]; organic solvent or mixture, thermodynamic from solid, THF): > 53 mg/mL
solubility ([1]; organic solvent or mixture, thermodynamic from solid, Toluene): > 54 mg/mL
solubility ([1]; organic solvent or mixture, thermodynamic from solid, n-butanol): 22 to 55 mg/mL (≈ 50.9 to 127 mM)
solubility ([1]; thermodynamic from solid, water): < 1 mg/mL

Cc1ccc(-c2ncccn2)c(C(=O)N2C3CCC2[C@@H](COc2ccc(F)cn2)CC3)c1 (stereo partly drawn) [crystal form II]
Crystal form of residual solid ([2]; 0.1N HCl): crystal form II
Final pH ([2]; 0.1N HCl): 0.80
Solubility (descriptive) ([2]; 0.1N HCl): Slightly soluble
Appearance ([2]; 0.1N HCl): turbid
Crystal form of residual solid ([2]; Simulate gastric fluid): crystal form II
Final pH ([2]; Simulate gastric fluid): 1.88
Solubility (descriptive) ([2]; Simulate gastric fluid): Slightly soluble
Appearance ([2]; Simulate gastric fluid): turbid
Crystal form of residual solid [2, 5]: crystal form II
Final pH [2, 5]: 6.65
Solubility (descriptive) [2, 5]: Slightly soluble
Appearance [2, 5]: turbid
Crystal form of residual solid [2, 6]: crystal form II
Final pH [2, 6]: 5.04
Solubility (descriptive) [2, 6]: Slightly soluble
Appearance [2, 6]: turbid
solubility at 24 h ([2]; pH 0.8, simulated gastric fluid, thermodynamic from solid, 0.1N HCl): 420 µg/mL (≈ 0.971 mM)
solubility at 24 h ([2]; pH 1.88, simulated gastric fluid, thermodynamic from solid, Simulate gastric fluid): 270 µg/mL (≈ 0.624 mM)
solubility at 24 h ([2]; pH 5.04, fessif, thermodynamic from solid, Simulated postprandial intestinal fluid): 290 µg/mL (≈ 0.671 mM)
solubility at 24 h ([2]; pH 6.65, fassif, thermodynamic from solid, Simulated fasting intestinal fluid): 180 µg/mL (≈ 0.416 mM)
solubility at 24 h ([2]; pH 7.95, thermodynamic from solid, water): 140 µg/mL (≈ 0.324 mM)
Crystal form of residual solid ([2]; water): crystal form II
Final pH ([2]; water): 7.95
Solubility (descriptive) ([2]; water): Slightly soluble
Appearance ([2]; water): turbid

Cc1ccc(-c2ncccn2)c(C(=O)N2C3CCC2[C@@H](COc2ccc(F)cn2)CC3)c1 (stereo partly drawn) [Compound 5-3]
IC50 [3]: < 50 nM
IC50 [4]: < 50 nM
